Reference: the NIST ThermoML archive (doi:10.1016/j.jct.2004.03.011)

Test: xn = mol fraction of the nth substance listed
Settings: Liquid

CO [methanol] + O
excess molar volume [m3/mol]
Settings | 298.15 K | 323.15 K | 348.15 K | 373.15 K | 398.15 K | 423.15 K | 448.15 K | 473.15 K | 498.15 K | 523.15 K
100 kPa, x1 = 0.25 | -7.42e-07 | -7.75e-07 | – | – | – | – | – | – | – | –
100 kPa, x1 = 0.5 | -1.014e-06 | -1.049e-06 | – | – | – | – | – | – | – | –
100 kPa, x1 = 0.75 | -7.05e-07 | -7.38e-07 | – | – | – | – | – | – | – | –
5000 kPa, x1 = 0.25 | -7.13e-07 | -7.41e-07 | -7.75e-07 | -8.26e-07 | -8.9e-07 | -9.81e-07 | -1.223e-06 | -1.902e-06 | – | –
5000 kPa, x1 = 0.5 | -9.63e-07 | -9.91e-07 | -1.022e-06 | -1.082e-06 | -1.146e-06 | -1.247e-06 | -1.583e-06 | -2.545e-06 | – | –
5000 kPa, x1 = 0.75 | -6.74e-07 | -7.02e-07 | -7.58e-07 | -8.14e-07 | -8.68e-07 | -9.59e-07 | -1.163e-06 | -1.736e-06 | – | –
10000 kPa, x1 = 0.25 | -6.85e-07 | -7.07e-07 | -7.33e-07 | -7.67e-07 | -8.12e-07 | -8.74e-07 | -9.78e-07 | -1.285e-06 | -2.081e-06 | –
10000 kPa, x1 = 0.5 | -9.15e-07 | -9.36e-07 | -9.61e-07 | -9.85e-07 | -1.017e-06 | -1.072e-06 | -1.246e-06 | -1.616e-06 | -2.481e-06 | –
10000 kPa, x1 = 0.75 | -6.44e-07 | -6.7e-07 | -7.12e-07 | -7.46e-07 | -7.89e-07 | -8.43e-07 | -9.16e-07 | -1.12e-06 | -1.949e-06 | –
20000 kPa, x1 = 0.25 | -6.27e-07 | -6.4e-07 | -6.5e-07 | -6.6e-07 | -6.68e-07 | -6.78e-07 | -7.11e-07 | -8e-07 | -8.98e-07 | -1.217e-06
20000 kPa, x1 = 0.5 | -8.31e-07 | -8.38e-07 | -8.45e-07 | -8.51e-07 | -8.57e-07 | -8.64e-07 | -8.73e-07 | -8.91e-07 | -9.52e-07 | -1.421e-06
20000 kPa, x1 = 0.75 | -5.93e-07 | -6.05e-07 | -6.23e-07 | -6.44e-07 | -6.56e-07 | -6.65e-07 | -6.88e-07 | -7.38e-07 | -8.16e-07 | -1.204e-06
30000 kPa, x1 = 0.25 | -5.75e-07 | -5.74e-07 | -5.73e-07 | -5.71e-07 | -5.68e-07 | -5.65e-07 | -5.62e-07 | -5.58e-07 | -5.54e-07 | -5.47e-07
30000 kPa, x1 = 0.5 | -7.62e-07 | -7.51e-07 | -7.38e-07 | -7.26e-07 | -7.09e-07 | -6.92e-07 | -6.64e-07 | -6.29e-07 | -5.87e-07 | -5.46e-07
30000 kPa, x1 = 0.75 | -5.53e-07 | -5.49e-07 | -5.37e-07 | -5.28e-07 | -5.19e-07 | -5.12e-07 | -4.93e-07 | -4.65e-07 | -4.28e-07 | -3.91e-07
40000 kPa, x1 = 0.25 | -5.29e-07 | -5.2e-07 | -5.12e-07 | -5.07e-07 | -4.94e-07 | -4.81e-07 | -4.64e-07 | -4.41e-07 | -4.12e-07 | -3.76e-07
40000 kPa, x1 = 0.5 | -7.02e-07 | -6.85e-07 | -6.67e-07 | -6.47e-07 | -6.14e-07 | -5.71e-07 | -5.13e-07 | -4.66e-07 | -4.01e-07 | -3.36e-07
40000 kPa, x1 = 0.75 | -5.14e-07 | -5.02e-07 | -4.81e-07 | -4.58e-07 | -4.35e-07 | -4.2e-07 | -3.86e-07 | -3.3e-07 | -2.7e-07 | -2.01e-07
50000 kPa, x1 = 0.25 | -4.85e-07 | -4.75e-07 | -4.64e-07 | -4.52e-07 | -4.33e-07 | -4.13e-07 | -3.89e-07 | -3.59e-07 | -3.26e-07 | -2.77e-07
50000 kPa, x1 = 0.5 | -6.49e-07 | -6.32e-07 | -6.06e-07 | -5.81e-07 | -5.37e-07 | -4.75e-07 | -4.04e-07 | -3.42e-07 | -2.68e-07 | -1.97e-07
50000 kPa, x1 = 0.75 | -4.65e-07 | -4.55e-07 | -4.4e-07 | -4.14e-07 | -3.8e-07 | -3.49e-07 | -3e-07 | -2.37e-07 | -1.6e-07 | -8.4e-08
60000 kPa, x1 = 0.25 | -4.61e-07 | -4.39e-07 | -4.23e-07 | -4.05e-07 | -3.83e-07 | -3.56e-07 | -3.27e-07 | -2.9e-07 | -2.45e-07 | -1.86e-07
60000 kPa, x1 = 0.5 | -6.02e-07 | -5.84e-07 | -5.58e-07 | -5.21e-07 | -4.75e-07 | -4.01e-07 | -3.18e-07 | -2.41e-07 | -1.61e-07 | -8.4e-08
60000 kPa, x1 = 0.75 | – | -4.28e-07 | -4.06e-07 | -3.72e-07 | -3.33e-07 | -2.84e-07 | -2.23e-07 | -1.58e-07 | -8.4e-08 | -5e-09
